IC50 data for 16 compounds are collected here from patent US20260274833A1 (NiKang Therapeutics, Inc., priority 2022, published 2026).

The target of the test is T1, CDK2 (Homo sapiens, UniProt P24941).
T1 construct: endogenous in cells; host or cells: OVCAR3 cells
As to the kind of experiment: Phospho-RB measurement in OVCAR3 cells (HTRF phospho-RB cellular kit). It is filed as cell-based. Particulars: inhibition of RB phosphorylation at S807/811 (HTRF, TR-FRET ratio 665/620), 24 h compound treatment, 0.3 to 10,000 nM. An outline of the steps:
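IC50 came from a four-parameter logistic fit of the DMSO-normalized TR-FRET ratio (665/620 nm). That ratio reflects RB phosphorylation at S807/811, read with an HTRF antibody pair 4 h after adding lysate at room temperature.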
In general terms: Time-resolved FRET reads energy transfer from a long-lived donor to a nearby acceptor.
With `O=S1(=O)CC2(CC(Nc3nccc(-c4sc(C5(C(F)(F)F)CC5)nc4-c4cccc(NS(=O)(=O)N5CCc6ccc(C(F)(F)F)cc65)c4F)n3)C2)C1` [Example 286, N-(3-(5-(2-((2,2-dioxido-2-thiaspiro-[3.3]heptan-6-yl)amino)pyrimidin-4-yl)-2-(1-(trifluoromethyl)cyclopropyl)-thiazol-4-yl)-2-fluorophenyl)-6-(trifluoromethyl) indoline-1-sulfonamide], the IC50 amounted to 0.574 µM.
The value for `O=S1(=O)C[C@@H]2[C@H](C1)[C@H]2Nc1nccc(-c2sc(C34CC(C3)C4)nc2-c2cccc(NS(=O)(=O)N3CCc4c(CO)cccc43)c2F)n1` [Example 13, N-(3-(2-(bicyclo [1.1.1]pentan-1-yl)-5-(2-(((1R,5S,6r)-3,3-dioxido-3-thia-bicyclo[3.1.0]-hexan-6-yl)amino)-pyrimidin-4-yl)thiazol-4-yl)-2-fluorophenyl)-4-(hydroxymethyl)-indoline-1-sulfonamide] was 0.0577 µM; that for `CS(=O)(=O)[C@H]1CC[C@H](Nc2nccc(-c3sc(C4(C(F)(F)F)CC4)nc3-c3cccc(NS(=O)(=O)N4CCc5ccc(C(F)(F)F)cc54)c3F)n2)CC1` [Example 282, N-(2-fluoro-3-(5-(2-(((1r,4r)-4-(methylsulfonyl)cyclohexyl)amino)pyrimidin-4-yl)-2-(1-(trifluoromethyl)-cyclopropyl)thiazol-4-yl)phenyl)-6-(trifluoromethyl) indoline-1-sulfonamide] was 0.357 µM; that for `CC(C)(C)c1nc(-c2cccc(NS(=O)(=O)N3CCN(S(C)(=O)=O)CC3)c2F)c(-c2ccnc(NC3CCN(S(C)(=O)=O)CC3)n2)s1` [Example 93, N-(3-(2-(tert-butyl)-5-(2-((1-(methylsulfonyl)piperidin-4-yl)amino)-pyrimidin-4-yl)thiazol-4-yl)-2-fluorophenyl)-4-(methylsulfonyl)-piperazine-1-sulfonamide] was 3.03 µM.
Take `CC(C)(C)c1nc(-c2cccc(NS(=O)(=O)N3CCc4c(CC#N)cccc43)c2F)c(-c2ccnc(NC3CC4(C3)CS(=O)(=O)C4)n2)s1` [Example 238, N-(3-(2-(tert-butyl)-5-(2-((2,2-dioxido-2-thiaspiro[3.3]heptan-6-yl)amino)-pyrimidin-4-yl)thiazol-4-yl)-2-fluoro-phenyl)-4-(cyanomethyl) indoline-1-sulfonamide]: the IC50 was 0.295 µM.
Turning to `CC(C)(C)c1nc(-c2cccc(NS(=O)(=O)N3CCc4ccc(C#N)cc43)c2F)c(-c2ccnc(Nc3ccc(S(C)(=O)=O)cc3)n2)s1` [Example 242, N-(3-(2-(tert-butyl)-5-(2-((4-(methylsulfonyl)-phenyl)amino)-pyrimidin-4-yl)thiazol-4-yl)-2-fluoro-phenyl)-6-cyanoindoline-1-sulfonamide], the IC50 came to 0.302 µM.
On to `O=S1(=O)CC2(CC(Nc3nccc(-c4sc(C56CC(C5)C6)nc4-c4cccc(NS(=O)(=O)N5CCc6ccc(C(F)F)cc65)c4F)n3)C2)C1` [Example 27, N-(3-(2-(bicyclo [1.1.1]pentan-1-yl)-5-(2-((2,2-dioxido-2-thiaspiro[3.3]heptan-6-yl)amino)-pyrimidin-4-yl)thiazol-4-yl)-2-fluorophenyl)-6-(difluoromethyl)-indoline-1-sulfonamide], for which the IC50 came out at 0.161 µM.
The figure for `CC1(c2nc(-c3cccc(NS(=O)(=O)N4Cc5cccc(C(F)(F)F)c5C4)c3F)c(-c3ccnc(N[C@H]4[C@@H]5CS(=O)(=O)C[C@@H]54)n3)s2)CCOCC1` [Example 8, N-(3-(5-(2-(((1R,5S, 6r)-3,3-dioxido-3-thiabicyclo[3.1.0]hexan-6-yl)amino)-pyrimidin-4-yl)-2-(4-methyltetrahydro-2H-pyran-4-yl)thiazol-4-yl)-2-fluorophenyl)-4-(trifluoromethyl)-isoindoline-2-sulfonamide] is 0.0152 µM.
`CN(C1CNC1)S(=O)(=O)N1CCC(Nc2nccc(-c3sc(C(C)(C)C)nc3-c3cccc(NS(=O)(=O)N4Cc5ccccc5C4)c3F)n2)CC1` [Example 173, N-(3-(5-(2-((1-(N-(azetidin-3-yl)-N-methylsulfamoyl)piperidin-4-yl)amino)-pyrimidin-4-yl)-2-(tert-butyl)thiazol-4-yl)-2-fluorophenyl) isoindoline-2-sulfonamide]: the half-maximal inhibitory concentration (IC50) is 0.385 µM.
As for `C[C@@H]1c2ccccc2CN1S(=O)(=O)Nc1cccc(-c2nc(C(C)(C)C)sc2-c2ccnc(NC3CCN(S(C)(=O)=O)CC3)n2)c1F` [Example 130, (R)-N-(3-(2-(tert-butyl)-5-(2-((1-(methyl-sulfonyl)piperidin-4-yl)amino)-pyrimidin-4-yl)thiazol-4-yl)-2-fluoro-phenyl)-1-methyliso-indoline-2-sulfonamide], the IC50 was found to be 0.268 µM.
The value for `O=S1(=O)CC2(CC(Nc3nccc(-c4sc(C56CC(C5)C6)nc4-c4cccc(NS(=O)(=O)N5CCc6c(F)cc(F)cc65)c4F)n3)C2)C1` [Example 37, N-(3-(2-(bicyclo [1.1.1]pentan-1-yl)-5-(2-((2,2-dioxido-2-thiaspiro[3.3]heptan-6-yl)amino)-pyrimidin-4-yl)thiazol-4-yl)-2-fluorophenyl)-4,6-difluoroindoline-1-sulfonamide] was 0.0745 µM.
The figure for `CNCc1cccc2c1CCN2S(=O)(=O)Nc1cccc(-c2nc(C(C)(C)C)sc2-c2ccnc(NC3CCN(S(C)(=O)=O)CC3)n2)c1F` [Example 134, N-(3-(2-(tert-butyl)-5-(2-((1-(methylsulfonyl)-piperidin-4-yl)amino)-pyriidin-4-yl)thiazol-4-yl)-2-fluoro-phenyl)-4-((methylamino)methyl)-indoline-1-sulfonamide] is 0.589 µM.
For the compound `CS(=O)(=O)[C@H]1CC[C@H](Nc2nccc(-c3sc(N4C5CCC4CN(C4CC(F)(F)C4)C5)nc3-c3cccc(NS(=O)(=O)N4CCc5ccc(C(F)(F)F)cc54)c3F)n2)CC1` [Example 295, N-(3-(2-(3-(3,3-difluorocyclobutyl)-3,8-diazabicyclo[3.2.1]octan-8-yl)-5-(2-(((1r,4r)-4-(methylsulfonyl)cyclohexyl)-amino)pyrimidin-4-yl)thiazol-4-yl)-2-fluorophenyl)-6-(trifluoromethyl)-indoline-1-sulfonamide], the IC50 stood at 0.536 µM.
The figure for `CC(C)(C)c1nc(-c2cccc(NS(=O)(=O)N3Cc4ccncc4C3)c2F)c(-c2ccnc(NC3CCN(S(=O)(=O)N4CCNCC4)CC3)n2)s1` [Example 126, N-(3-(2-(tert-butyl)-5-(2-((1-(piperazin-1-ylsulfonyl)piperidin-4-yl)amino)-pyrimidin-4-yl)thiazol-4-yl)-2-fluorophenyl)-1,3-dihydro-2H-pyrrolo[3,4-c] pyridine-2-sulfonamide] is 0.366 µM; for `CC(C)(C)c1nc(-c2cccc(NS(=O)(=O)N3CCc4cnccc43)c2F)c(-c2ccnc(NC3CCN(S(C)(=O)=O)CC3)n2)s1` [Example 162, N-(3-(2-(tert-butyl)-5-(2-((1-(methylsulfonyl)piperidin-4-yl)amino)-pyrimidin-4-yl)thiazol-4-yl)-2-fluoro-phenyl)-2,3-dihydro-1H-pyrrolo [3,2-c]-pyridine-1-sulfonamide] it is 2.12 µM.
`CN(C)Cc1ccc(Nc2nccc(-c3sc(C(C)(C)C)nc3-c3cccc(NS(=O)(=O)N4CCc5ccc(C#N)cc54)c3F)n2)cc1` [Example 248, N-(3-(2-(tert-butyl)~5-(2-((4-((dimethylamino)-methyl)phenyl)-amino)pyrimidin-4-yl)thiazol-4-yl)-2-fluorophenyl)-6-cyanoindoline-1-sulfonamide]: the IC50 worked out at 0.405 µM.

What is called IC50 is the concentration at which inhibition is half-maximal.
